In general, Km refers to the concentration of substrate that gives half-maximal velocity.

Consider one substance from publication PMC11510023, “A Novel Cold-Adapted Nitronate Monooxygenase from Psychrobacter sp. ANT206: Identification, Characterization and Degradation of 2-Nitropropane at Low Temperature” (Microorganisms, 2024).

The experiment relates to T1, rPsNMO.
T1 construct: gene psnmo; N-terminal His-tag, pET28a(+), E. coli BL21(DE3)
Nature of the experiment: nitrite release, colorimetric at […] nm; Lineweaver-Burk. The experiment is classed as biochemical, Psychrobacter sp. ANT206. The following applies: 30 °C, pH 7.5 potassium phosphate, 6-12 mM 2-NP; substrate pre-equilibrated 24 h with equal KOH to give the anionic form (propane-2-nitronate).

Regarding 2-NP, the Km is 10.3 mM.
